Measurements from ChEMBL document CHEMBL2440076, “New triarylpyrazoles as broad-spectrum anticancer agents: design, synthesis, and biological evaluation” (Eur J Med Chem, 2013).

Key:
ACHN = test: Growth inhibition of human ACHN cells after 48 hrs by sulforhodamine B assay; type: functional
A498 = test: Growth inhibition of human A498 cells after 48 hrs by sulforhodamine B assay; type: functional, cell-based; conditions: A498, 48 h
SNB-19 = test: Growth inhibition of human SNB19 cells after 48 hrs by sulforhodamine B assay; type: functional; conditions: SNB-19, 48 h
Malme-3M [1] = test: Growth inhibition of human MALME-3M cells assessed as cell growth at 10 uM after 48 hrs by sulforhodamine B assay; type: functional; conditions: read-out: Activity
Malme-3M [2] = test: Growth inhibition of human MALME-3M cells after 48 hrs by sulforhodamine B assay; type: functional
MDA-MB-435 = test: Growth inhibition of human MDA-MB-435 cells assessed as cell growth at 10 uM after 48 hrs by sulforhodamine B assay; type: functional; conditions: MDA-MB-435, 48 h, read-out: Activity
LOX IMVI [3] = test: Growth inhibition of human LOXIMVI cells assessed as cell growth at 10 uM after 48 hrs by sulforhodamine B assay; type: functional; conditions: read-out: Activity
IGROV-1 = test: Growth inhibition of human IGROV1 cells assessed as cell growth at 10 uM after 48 hrs by sulforhodamine B assay; type: functional; conditions: IGROV-1, 48 h, read-out: Activity
HCT-116 = test: Growth inhibition of human HCT116 cells after 48 hrs by sulforhodamine B assay; type: functional; conditions: HCT-116, 48 h
[4] = Growth inhibition of human NCI-ADR-RES cells assessed as cell growth at 10 uM after 48 hrs by sulforhodamine B assay; type: functional; conditions: read-out: Activity
NCI-H226 [5] = test: Growth inhibition of human NCI-H226 cells after 48 hrs by sulforhodamine B assay; type: functional; conditions: NCI-H226, 48 h
CCRF-CEM = test: Growth inhibition of human CCRF-CEM cells assessed as cell growth at 10 uM after 48 hrs by sulforhodamine B assay; type: functional; conditions: read-out: Activity
UACC-62 = test: Growth inhibition of human UACC62 cells after 48 hrs by sulforhodamine B assay; type: functional; conditions: UACC-62, 48 h
SN12C = test: Growth inhibition of human SN12C cells after 48 hrs by sulforhodamine B assay; type: functional
MCF7 = test: Growth inhibition of human MCF7 cells assessed as cell growth at 10 uM after 48 hrs by sulforhodamine B assay; type: functional; conditions: MCF7, 48 h, read-out: Activity
COLO 205 = test: Growth inhibition of human COLO205 cells after 48 hrs by sulforhodamine B assay; type: functional; conditions: COLO 205, 48 h
MOLT-4 = test: Growth inhibition of human MOLT4 cells assessed as cell growth at 10 uM after 48 hrs by sulforhodamine B assay; type: functional; conditions: MOLT-4, 48 h, read-out: Activity
SF-268 = test: Growth inhibition of human SF268 cells after 48 hrs by sulforhodamine B assay; type: functional; conditions: SF-268, 48 h
NCI-H226 [6] = test: Growth inhibition of human NCI-H226 cells assessed as cell growth at 10 uM after 48 hrs by sulforhodamine B assay; type: functional; conditions: NCI-H226, 48 h, read-out: Activity
OVCAR-4 [7] = test: Growth inhibition of human OVCAR4 cells assessed as cell growth at 10 uM after 48 hrs by sulforhodamine B assay; type: functional; conditions: OVCAR-4, 48 h, read-out: Activity
HCT-15 [8] = test: Growth inhibition of human HCT15 cells assessed as cell growth at 10 uM after 48 hrs by sulforhodamine B assay; type: functional; conditions: HCT-15, 48 h, read-out: Activity
SR = test: Growth inhibition of human SR cells after 48 hrs by sulforhodamine B assay; type: functional
HOP-92 [9] = test: Growth inhibition of human HOP92 cells assessed as cell growth at 10 uM after 48 hrs by sulforhodamine B assay; type: functional; conditions: HOP-92, 48 h, read-out: Activity
HT-29 = test: Growth inhibition of human HT-29 cells assessed as cell growth at 10 uM after 48 hrs by sulforhodamine B assay; type: functional; conditions: HT-29, 48 h, read-out: Activity
HOP-92 [10] = test: Growth inhibition of human HOP92 cells after 48 hrs by sulforhodamine B assay; type: functional, cell-based; conditions: HOP-92, 48 h
LOX IMVI [11] = test: Growth inhibition of human LOXIMVI cells after 48 hrs by sulforhodamine B assay; type: functional
HOP-62 = test: Growth inhibition of human HOP62 cells after 48 hrs by sulforhodamine B assay; type: functional; conditions: HOP-62, 48 h
SF-539 = test: Growth inhibition of human SF539 cells assessed as cell growth at 10 uM after 48 hrs by sulforhodamine B assay; type: functional; conditions: SF-539, 48 h, read-out: Activity
A549 = test: Growth inhibition of human A549/ATCC cells assessed as cell growth at 10 uM after 48 hrs by sulforhodamine B assay; type: functional; conditions: A549, 48 h, read-out: Activity
OVCAR-4 [12] = test: Growth inhibition of human OVCAR4 cells after 48 hrs by sulforhodamine B assay; type: functional; conditions: OVCAR-4, 48 h
KM12 = test: Growth inhibition of human KM12 cells assessed as cell growth at 10 uM after 48 hrs by sulforhodamine B assay; type: functional; conditions: KM12, 48 h, read-out: Activity
NCI-H322M = test: Growth inhibition of human NCI-H322M cells assessed as cell growth at 10 uM after 48 hrs by sulforhodamine B assay; type: functional; conditions: read-out: Activity
M14 = test: Growth inhibition of human M14 cells after 48 hrs by sulforhodamine B assay; type: functional; conditions: M14, 48 h
OVCAR-8 = test: Growth inhibition of human OVCAR8 cells after 48 hrs by sulforhodamine B assay; type: functional; conditions: OVCAR-8, 48 h
HCT-15 [13] = test: Growth inhibition of human HCT15 cells after 48 hrs by sulforhodamine B assay; type: functional; conditions: HCT-15, 48 h
[14] = read-out: LC50 (the source's name)

## COc1cc(-c2nn(-c3cccc(NC(=O)c4ccc(N5CCOCC5)c(C(F)(F)F)c4)c3)cc2-c2ccncc2)ccc1Cl
ACHN
  GI50: 0.564 µM
  TGI: > 100 µM
ACHN; [14]
  CC50: > 100 µM
A498
  GI50: 0.227 µM
  IC50: 0.23 µM
  TGI: 1.08 µM
A498; [14]
  CC50: > 100 µM
SNB-19
  GI50: 0.52 µM
  LC50 (concentration killing 50% of cells): > 100 µM
  TGI: > 100 µM
Malme-3M [1]
  growth at 10 µM: 36.2%
Malme-3M [2]
  GI50: 0.129 µM
  LC50 (concentration killing 50% of starting cells): > 100 µM
  TGI: 5.1 µM
MDA-MB-435
  growth at 10 µM: -35.1%
LOX IMVI [3]
  growth at 10 µM: 13.7%
IGROV-1
  growth at 10 µM: 41.8%
HCT-116
  GI50: 0.4 µM
  TGI: > 100 µM
HCT-116; [14]
  CC50: > 100 µM
[4]
  growth at 10 µM: -7.13%
NCI-H226 [5]
  GI50: 0.427 µM
  TGI: > 100 µM
NCI-H226 [5]; [14]
  CC50: > 100 µM
CCRF-CEM
  growth at 10 µM: 0.91%
UACC-62
  GI50: 0.266 µM
  LC50 (50% lethal concentration): > 100 µM
  TGI: 8.2 µM
SN12C
  GI50: 1.09 µM
  TGI: > 100 µM
SN12C; [14]
  CC50: > 100 µM
MCF7
  growth at 10 µM: 8.85%
COLO 205
  GI50: 0.342 µM
  LC50 (concentration killing 50% of cells): 4.15 µM
  TGI: 1.15 µM
MOLT-4
  growth at 10 µM: 4.07%
SF-268
  GI50: 0.668 µM
  TGI: > 100 µM
SF-268; [14]
  CC50: > 100 µM
NCI-H226 [6]
  growth at 10 µM: 42.5%
OVCAR-4 [7]
  growth at 10 µM: 52.6%
HCT-15 [8]
  growth at 10 µM: 16.7%
SR
  GI50: 0.0369 µM
  TGI: > 100 µM
SR; [14]
  CC50: > 100 µM
HOP-92 [9]
  growth at 10 µM: 11.5%
HT-29
  growth at 10 µM: -13.3%
HOP-92 [10]
  GI50: 0.124 µM
  IC50: 0.12 µM
  LC50: > 100 µM
  TGI: 0.813 µM
LOX IMVI [11]
  GI50: 0.371 µM
  LC50: > 100 µM
  TGI: 6.2 µM
HOP-62
  GI50: 0.583 µM
  TGI: > 100 µM
HOP-62; [14]
  CC50: > 100 µM
SF-539
  growth at 10 µM: -68.9%
A549
  growth at 10 µM: 3.58%
OVCAR-4 [12]
  GI50: 0.957 µM
  LC50 (concentration killing 50% of cells): > 100 µM
  TGI: > 100 µM
KM12
  growth at 10 µM: 5.64%
NCI-H322M
  growth at 10 µM: 54.2%
M14
  GI50: 0.43 µM
  LC50 (concentration killing 50% of cells): > 100 µM
  TGI: 16 µM
OVCAR-8
  GI50: 0.468 µM
  TGI: > 100 µM
OVCAR-8; [14]
  CC50: > 100 µM
HCT-15 [13]
  GI50: 0.247 µM
  LC50: > 100 µM
  TGI: > 100 µM

## COc1cc(-c2nn(-c3cccc(NC(=O)c4ccc(Br)c(C)c4)c3)cc2-c2ccncc2)ccc1Cl
Malme-3M [1]
  growth at 10 µM: 52.7%
MDA-MB-435
  growth at 10 µM: 34.7%
LOX IMVI [3]
  growth at 10 µM: 75.4%
IGROV-1
  growth at 10 µM: 76.2%
[4]
  growth at 10 µM: 66.5%
CCRF-CEM
  growth at 10 µM: 74.6%
MCF7
  growth at 10 µM: 75%
MOLT-4
  growth at 10 µM: 68.7%
NCI-H226 [6]
  growth at 10 µM: 84.7%
OVCAR-4 [7]
  growth at 10 µM: 86.2%
HCT-15 [8]
  growth at 10 µM: 67.8%
HOP-92 [9]
  growth at 10 µM: 51.3%
HT-29
  growth at 10 µM: 66.6%
SF-539
  growth at 10 µM: 76.8%
A549
  growth at 10 µM: 78.3%
KM12
  growth at 10 µM: 82.7%
NCI-H322M
  growth at 10 µM: 91.7%

## Cc1cc(C(=O)Nc2cccc(-n3cc(-c4ccncc4)c(-c4ccc(Cl)c(O)c4)n3)c2)ccc1Br
Malme-3M [1]
  growth at 10 µM: 82.6%
MDA-MB-435
  growth at 10 µM: 93.4%
LOX IMVI [3]
  growth at 10 µM: 86.4%
IGROV-1
  growth at 10 µM: 101%
[4]
  growth at 10 µM: 99.7%
CCRF-CEM
  growth at 10 µM: 87.2%
MCF7
  growth at 10 µM: 85.4%
MOLT-4
  growth at 10 µM: 76.1%
NCI-H226 [6]
  growth at 10 µM: 101%
OVCAR-4 [7]
  growth at 10 µM: 108%
HCT-15 [8]
  growth at 10 µM: 97.4%
HOP-92 [9]
  growth at 10 µM: 97.8%
HT-29
  growth at 10 µM: 107%
SF-539
  growth at 10 µM: 95.5%
A549
  growth at 10 µM: 95.3%
KM12
  growth at 10 µM: 97.3%
NCI-H322M
  growth at 10 µM: 107%
